Columns and labels:
[1] = test system: tonic seizure (maximum electroshock) in female C57BI/6 mice; assay: Maximum Electroshock (MES) procedure; type: in vivo, mouse (female C57BI/6); settings: Mus musculus, ip, 0.5 h, i.p. 30 min before MES, abolition of hindlimb tonic extension, read-out: MES Results: median effective dose (ED50)
Procedure: (§1) The compounds of Formula I are anticonvulsant agents. Their anticonvulsant properties were determined by pharmacologic testing, utilizing two standard animal models of epilepsy: the pentylenetetrazole (PTZ)-induced seizure procedure and the maximal electroshock test (MES). General descriptions of such testing can be found in J. F. Reinhard and J. F. Reinhard, Jr., "Experimental Evaluation of Anticonvulsants," in Anticonvulsants, J. A. Vida, Ed., Academic Press, New York, N.Y., 1977.
The Maximum Electroshock (MES) Procedure
In the MES procedure a tonic seizure was produced in female C57BI/6 mice (17-26 g) by the delivery of a 50 milliamps current through corneal electrodes for 0.2 sec. Before testing, animals were allowed food and water ad libitum. Compounds were injected i.p. (vol=0.1 mL/20 g) 30 min. before the MES. Reference compounds (phenytoin, carbamazepine, phenobarbital, and valproic acid) were tested at the time of peak activity and at the dose range reported in the literature. Seven mice were used per group. In this test anticonvulsive activity was indicated by the abolition of the hindlimb tonic extension. The median effective dose (ED50) was obtained for each compound.

[2] = test system: pentylenetetrazole (PTZ)-induced seizure in female C57BI/6 mice; assay: Pentylenetetrazole (PTZ)-induced seizure procedure; type: in vivo, mouse (female C57BI/6); settings: 50 mg/kg i.p., 30 min before 75 mg/kg i.p. PTZ; for PTZ Anticonvulsive Results: Surv (survival at one hour postPTZ): one hour post PTZ
Procedure: as §1
The Pentylenetetrazole (PZT)-Induced Seizure Procedure
In the PTZ procedure female C57BI/6 mice (17-26 g) were injected i.p. (vol=0.1 mL/20 g) with test compound or vehicle 30 min. before i.p. administration of 75 mg/kg pentylenetetrazol. Multiple doses of reference compounds (ethosuximide, trimethadione, and pentobarbital) were tested at the time of peak activity and at the dose range reported in the literature. Ten mice were used per group. After injection, mice were placed in individual observation cages and monitored for one hour. During the first 30 minutes following PTZ injection, seizure activity was recorded by measuring: the latency to the onset of pre-convulsive activity, the latency to the onset of the first clonic seizure longer than five seconds, the latency to the onset of the first intense-generalized clonic/tonic seizure, and the length of survival. During the second 30 min. period, only time of death was recorded. Those compounds that produced a significant delay in the onset of seizure activity or delayed (or abolished) mortality when compared to that produced by vehicle were classified as anticonvulsants. Significant difference between animals treated with vehicle or test compound were determined using the Student's t-test.

## COc1cc(N)c(Cl)cc1C(=O)NCc1ccncc1 [Example 3, 4-Amino-5-chloro-2-methoxy-N-(4-pyridinylmethyl)benzamide]
[1]
  ED50: < 10 mg/kg
[2]
  PTZ Anticonvulsive Results: First (latency to first seizure): ++++ (++++ = > 400% of controls)
  PTZ Anticonvulsive Results: IGS (onset of intense, generalized seizures): +++ (+++ = > 300% of controls)
  PTZ Anticonvulsive Results: Pre (latency to first twitch): ++ (++ = > 200% of controls)
  PTZ Anticonvulsive Results: Surv Time (duration of survival): ++++ (++++ = > 400% of controls)
  PTZ Anticonvulsive Results: Surv (survival at one hour postPTZ): ++++ (++++ = > 400% of controls)

## COc1cc(N)c(Cl)cc1C(=O)NCc1cccnc1 [Example 1, 4-Amino-5-chloro-2-methoxy-N-(3-pyridinylmethyl)benzamide]
[1]
  ED50: < 75 mg/kg
[2]
  PTZ Anticonvulsive Results: First (latency to first seizure): ++++ (++++ = > 400% of controls)
  PTZ Anticonvulsive Results: IGS (onset of intense, generalized seizures): +++ (+++ = > 300% of controls)
  PTZ Anticonvulsive Results: Pre (latency to first twitch): ++ (++ = > 200% of controls)
  PTZ Anticonvulsive Results: Surv Time (duration of survival): ++++ (++++ = > 400% of controls)
  PTZ Anticonvulsive Results: Surv (survival at one hour postPTZ): ++++ (++++ = > 400% of controls)

## COc1cc(N)c(Cl)cc1C(=O)NCc1ccccn1 [Example 2, 4-Amino-5-chloro-2-methoxy-N-(2-pyridinylmethyl)benzamide]
[2]
  PTZ Anticonvulsive Results: First (latency to first seizure): ++++ (++++ = > 400% of controls)
  PTZ Anticonvulsive Results: Pre (latency to first twitch): ++ (++ = > 200% of controls)
  PTZ Anticonvulsive Results: Surv Time (duration of survival): +++ (+++ = > 300% of controls)
  PTZ Anticonvulsive Results: Surv (survival at one hour postPTZ): ++++ (++++ = > 400% of controls)

— patent US5859033A, “Anticonvulsant pyridinyl benzamide derivatives” (Bristol-Myers Squibb Company, priority 1997, dated 1999)
